# Legend:
# [1] = system: L. donovani amastigote forms; experiment: In vitro activity against intracellular (amastigote) forms in macrophages; assay type: cell-based, Leishmania donovani; details: for IC50: Leishmania donovani, Macrophage, 72 h; for Selectivity Index (SI) L. donvovani Amastigote forms: IC50 of macrophages / IC50 of parasite form
# Text: (§1) Methodology: Cultures of three Leishmania species, representative of the species causing each of the clinical forms of the disease, were used for these studies. Specifically, strains MCAN/ES/2001/UCM-1 O of L.infantum, isolated and characterised in Madrid from an infected dog; MHOM/BR/1975/M2904 of L.braziliensis, isolated in Brazil in a human case, and LCR-L 133 LRC of L.donovani. isolated in Jerusalem, Israel from a case of kala-azar […] (WHO Technical Reports Series 949. Geneva: WHO. March. The cultures of parasites come from an own collection which was prepared from a biobank project (Biobank and Characterisation Unit of Strains and Species of Trypanosomatids, Responsible for Human, Animal and Plant Pathologies, Cgl-2008-03687-E/Bos.), and are available on request.
# (§2) For the study of the in vitro effect on intracellular forms of Leishmania, the experimental model designed by the group of the present inventors was used [Sánchez-Moreno. M. et al. Med. Chem. 2012, 55, 9900-9913; Sánchez-Moreno. M. et al. J. Antimicrob. Chemother. 2012, 67, 387-397]. The macrophages were detached from the culture flask where they were attached by dry blows. To do this, it was incubated in cold for 5 minutes and after that the flask was hit with the palm of the hand until the cells were detached from the flask. Then, they were passed to a 25 ml capacity steriling conical bottom flask (Deltalab) to centrifuge them at 120 g for 5 minutes, removing the supernatant and were counted in Neubauer’s chamber. Cells were suspended in RPMI medium at a concentration of 1×10^4 cells/well, then cultured in 24-well plates into which a 12 mm round slide had previously been placed into each well. For adherence, the cells were left 24 h at 37° C. in 5% CO2. Subsequently, the cells were infected in vitro by placing Leishmania cells at the rate of 10 parasites/macrophage according to [Sánchez-Moreno. M et al. Med. Chem. 2011, 54, 970-979]. […] The products were allowed to act for 72 hours of incubation.
# (§3) After that time, the crystals were removed and fixed with methanol on a slide and allowed to dry, after which DPX microscopy mounting medium (Panreac®) was added to it. Once the preparations had been mounted, they were dyed with Giemsa by diluting Azur-Eosin-Methylene Blue solution according to Giemsa DC (Code 251338) with Sorensen buffer (1:10 dilution). The preparations were covered and allowed to colour for 20 minutes, after which they were washed with distilled water and then allowed to drain and dry vertically. Finally, the amastigote forms were counted with the aim of immersion in a total of 200 cells.
# [2] = system: L. infantum amastigote forms; experiment: as above; assay type: cell-based, Leishmania infantum; details: for Selectivity Index (SI) L. infantum Amastigote forms: IC50 of macrophages / IC50 of parasite form; for IC50: Leishmania infantum, Macrophage, 72 h
# Text: as §1, §2, §3
# [3] = Potentiometric titrations, protonation constants; assay type: physicochemical; details: 0.15 M NaCl, 298.1 K
# Experimental: FEM measurements. Potentiometric titrations were conducted at 298.1 ± 0.1 K using 0.15 M NaCl as the support electrolyte. The experimental procedure (burette, potentiometer, cell, stirrer, microcomputer, etc.) has been fully described elsewhere (E. García-Spain, M.-J. Ballester, F. Lloret, J.M. Moratal, J. Faus and A. Bianchi, J. Chem. Soc. Dalton Trans. 1988, 101-104). The FEM data acquisition was performed with the PASAT software (M. Fontanelli and M. Micheloni, Program for the automatic control of the microburette and the acquisition of the electromotor force readings (PASAT). Minutes of the 1st Spanish-Italian Congress of Thermodynamics of Metal Complexes, Peñíscola, Castellón, Spain, 1990). The reference electrode was an Ag/AgCl electrode in saturated KCI solution. The glass electrode was calibrated as a hydrogen ion concentration probe by titration of previously standardised amounts of HCl with CO2 free NaOH solutions and the equivalent point determined by Gran’s method ((a) G. Gran, Analyst 1952, 77, 661 -671; (b) F.J. Rossotti and H. Rossotti, J. Chem. Educ. 1965, 42, 375-378) providing the standard potential, Eº’, and the ionic product of water (pKw = 13.73 (1)).
# Hyperquad software was used to calculate protonation and stability constants (P. Gans, A. Sabatini and A. Vacca, Talanta 1996, 43, 1739-1753). The pH range investigated was 2.5-11.0 and the concentration of the ligands varied from 1×10^-3 to 5×10^-3 M. The different titration curves for each system (at least two) were treated as a single set or as separate curves without significant variations in the values of the stability constants. Finally, the data sets were fused and treated simultaneously to give the final protonation constants (Table 1). For compounds 1, 7 and 9, two protonation constants have been detected in the pH range studied with values ranging from 5.51 to 9.68 logarithmic units. For the remaining compounds, three protonation constants have been measured with values ranging from 10.08 to 2.25 logarithmic units. All compounds have charge +1 at the physiological pH value of 7.4.
# [4] = system: L. donovani promastigote forms; experiment: In vitro activity against extracellular (promastigote) forms; assay type: cell-based, Leishmania donovani; details: for Selectivity Index (SI) L. donvovani Promastigote forms: IC50 of macrophages / IC50 of parasite form; for IC50: Leishmania donovani, 72 h
# Text: as §1
# (§4) The promastigote forms of the three species studied were cultured in vitro in sterility in single-phase MTL culture medium (Medium Trypanosomes Liquid) made from Hank’s Balanced Salts (Sigma-Aldrich, H6136) enriched with 10% (v/v) of Fetal Bovine Serum (SBF-1) inactivated at 56° C./ 30 minutes. The parasite inoculum to initiate the culture was 5 × 10^4 cells/ml in 5 ml medium in 25 cm^2 Falcon® plastic flasks and kept in an oven at 28° C. The cultures were performed routinely, achieving exponential growth of the flagellates until obtaining the cell mass necessary for the subsequent studies. Both promastigote forms and amastigote forms were used to conduct the assays.
# (§5) The promastigote forms of the three Leishmania strains, cultured in the manner described above, were harvested in their exponential growth phase by centrifugation at 400 g for 10 min. The number of parasites was counted in a Neubauer Haemocytometer Counting Chamber and were inoculated in a 24-well plate at a concentration of 5 ×10^4 parasites/well.
# (§6) The compounds to be assayed were dissolved in DMSO at a concentration of 0.01% (v/v), concentration at which this solvent is not toxic nor has any effect on the growth of parasites. The compounds were added to the culture medium at final concentrations of 100, 50, 25 and 12.5 µM. […] M. et al. Med. Chem. 2011. 54. 970-979].
# [5] = system: L. braziliensis amastigote forms; experiment: In vitro activity against intracellular (amastigote) forms in macrophages; assay type: cell-based, Leishmania braziliensis; details: for Selectivity Index (SI) L. brazilensis Amastigote forms: IC50 of macrophages / IC50 of parasite form; for IC50: Leishmania braziliensis, Macrophage, 72 h
# Text: as §1, §2, §3
# [6] = system: L. infantum promastigote forms; experiment: In vitro activity against extracellular (promastigote) forms; assay type: cell-based, Leishmania infantum; details: for Selectivity Index (SI) L. infantum Promastigote forms: IC50 of macrophages / IC50 of parasite form; for IC50: Leishmania infantum, 72 h
# Text: as §1, §4, §5, §6
Compound,IC50 [1],Selectivity Index (SI) L. infantum Amastigote forms [2],IC50 [2],Log β [3],Logarithm of the protonation constant H2L+H ⇌ H3L [3],Logarithm of the protonation constant H+L ⇌ HL [3],Logarithm of the protonation constant HL+H ⇌ H2L [3],Selectivity Index (SI) L. donvovani Promastigote forms [4],IC50 [4],Selectivity Index (SI) L. brazilensis Amastigote forms [5],IC50 [5],Selectivity Index (SI) L. infantum Promastigote forms [6],IC50 [6],Selectivity Index (SI) L. donvovani Amastigote forms [1]
CN(C)CCNCc1ccncc1 [Compound 6],11.5 ± 1.3 µM,21,23.6 ± 1.7 µM,17.22 (1),2.956(6),8.865(3),5.407(3),7,67.9 ± 5.3 µM,17,29.7 ± 2.5 µM,8,63.3 ± 1.5 µM,
"CNCCNCc1cccnc1 [Compound 2, 1-{3-pyridyl)-2,5-diazahexane]",14.4 ± 0.1 µM,,8.4 ± 0.5 µM,18.29(3),2.95(2),9.653(5),5.687(5),26,11.7 ± 0.8 µM,20,15.8 ± 0.5 µM,,6.4 ± 0.6 µM,21
"CNCCNCc1ccncc1 [Compound 3, 1-{4-pyridyl)-2,5-diazahexane]",5.1 ± 0.3 µM,16,13.9 ± 1 µM,18.60(1),3.390(6),9.503(5),5.713(5),12,18.4 ± 0.8 µM,8,27.9 ± 1.2 µM,18,12.6 ± 2.1 µM,
"CN(C)CCNCc1ccccn1 [Compound 4, 1-(2-pyridyl)-5-methyl-2,5-diazahexane]",38.8 ± 1.4 µM,37,33.6 ± 1.4 µM,16.88(2),2.25(2),9.06(1) ^b,5.58(1),36,34.8 ± 1.5 µM,40,30.8 ± 1.3 µM,43,28.6 ± 2.5 µM,32
CN(C)CCNCc1ccc2ccccc2n1 [Compound 7],38.9 ± 3.2 µM,9,49.7 ± 3.6 µM,14.63 (1),,9.17(1),5.45(1),8,56.9 ± 2.7 µM,11,38.9 ± 2.7 µM,5,84.4 ± 5.1 µM,11
"CNCCNCc1ccccn1 [Compound 1, 1-{2-pyridyl}-2,5-diazahexane]",8.9 ± 0.9 µM,20,0.7 ± 0.1 µM,15.25(1),,9.63(1) ^b,5.62(1),2,7 ± 0.5 µM,2,5.7 ± 0.3 µM,23,0.6 ± 0.2 µM,1
"CN(C)CCNCc1ccnc2ccccc12 [Compound 8, 1-{4-quinolyl)-5-methyl-2,5-diazahexane]",10.6 ± 0.6 µM,2,11.5 ± 0.8 µM,18.99(2),3.32(1),10.08(1),5.59(1),2 (2),12.8 ± 0.6 µM,1,16.8 ± 1.1 µM,2 (2),14.1 ± 0.6 µM,2
"CN(C)CCNCc1cccnc1 [Compound 5, 1-{3-pyridyl}-5-methyl-2,5-diazahexane]",17.6 ± 0.7 µM,,10 ± 0.8 µM,17.98(1),3.16(1),9.18(1),5.63(1),11,21.7 ± 1.6 µM,11,20 ± 2 µM,,9.2 ± 0.7 µM,13
CNCCNCc1ccnc2ccccc12 [Compound 10],26.8 ± 2.1 µM,9,18.7 ± 1.5 µM,17.99(1),3.183(8),9.512(6),5.297(7),7,24.1 ± 0.6 µM,8,21.7 ± 2.3 µM,13,12.5 ± 1.1 µM,6
